These results are taken from US7771753B2, “Topical formulations comprising ceramic hydroxyapatite particles” (Laboratory Skin Care, Inc., priority 1995, dated 2010).

This experiment has as its system microorganisms (bacteria, fungi, pseudomonas aeruginosa, pseudomonas capacia, staphylococcus aureus, escherichia coli, candida albicans, aspergillus niger …). Description: Antimicrobial effectiveness of the agent used in the formulation. To be noted: salmonella typhimurium. From the text:
A preferred chemical antimicrobial agent for use under the invention is Triclosan. This agent used in the formulation has been found effective against the whole genera of microorganisms, (for example: bacteria, fungi, pseudomonas aeruginosa, pseudomonas capacia, staphylococcus aureus, escherichia coli, candida albicans, aspergillus niger, salmonella typhimurium, etc . . . ). […] The antimicrobial chemical agent is normally present in an amount of from 0.001-5% by weight, preferably from 0.05-2% by weight, and more preferably from 0.1-1% by weight.

`Oc1cc(Cl)ccc1Oc1ccc(Cl)cc1Cl` [Triclosan]: the effectiveness against microorganisms result is “effective”.
